Here are results for one compound from patent US20040043442A1, “Use of betaine in functional products having blood pressure lowering effects” (Finnfeeds Finland Oy, priority 2001, published 2004).

Type in all cases: in vivo, human
The subject of series [1] is healthy, obese adults with normal blood pressure. In words: Effect of betaine on blood pressure, controlled randomized double-blinded 12-week intervention study. The text has this: (§1) The effects of betaine supplementation on blood pressure, and in addition on body weight, body composition, resting energy expenditure, and concentrations of serum total and lipoprotein lipids and plasma homocysteine in humans, were studied. The participants were healthy, obese adults with normal blood pressure.
(§2) Forty-two subjects (14 males, 28 females) without any chronic disease and with normal liver, kidney and thyroid function participated in the study. The inclusion criteria for body mass index (BMI) was 28-40 kg/m^2 and for age 25-60 years. Serum concentration of total triglycerides had to be <3.5 mmol/l and that of total cholesterol <7.5 mmol/l. Inclusion criteria for fasting concentration of plasma glucose was <6.7 mmol/l. Subjects with lipid lowering medication were excluded as well women with perimenopause. Four women were postmenopausal in the control group and 6 were postmenopausal in the betaine group. None of the participants were on a medication for hypertension.
(§3) The study was a controlled, randomized double-blinded parallel study. […] Grapefruit juice was added to simulate the bitter taste of betaine. The subjects were on their regular eucaloric diet during this period. For the intervention period with a hypocaloric (−2100 kJ or −500 kcal) diet the subjects were randomly assigned in two groups (20 for the control group, 22 for the betaine group). The subjects were matched for BMI, gender and menstrual cycle.
(§4) The control group consumed orange juice 1 dl twice a day and the betaine group consumed betaine enriched orange juice 1 dl twice a day. The amount of betaine was 3 g per 1 dl orange juice, giving a daily betaine dose of 6 g.
The data were analyzed with the SPSS/PC+ statistics program (V8.0, SPSS; Chicago, Ill.). Before further analyses, normal distribution of the variables was checked with the Kolmogorov-Smimov test with Lilliefors significance correction. Variables with abnormal distribution (TG) were logarithmized and the logarithmized values were used in further analyses. GLM for repeated measures was used to test the changes within time. In cases the result of this analysis was significant paired t-test was used for two-tailed comparisons within the groups. Student's t-test was used for between-group comparisons. […] All data are expressed as mean±SD.
Blood pressure was measured from the right arm after five minutes of rest in sitting position using a zero mercury sphygmomanometer. Two measurements were performed and the mean of them was calculated and used for further analyses.

Series [2] has as its system homocysteine. Nature of the series: Total homocysteine by HPLC in the intervention study.
Text: as §1, §2, §3, §4
Plasma total homocysteine was determined by a modification of the highpressure liquid chromatographic method described by Ubbink et al. (Ubbink, J. B., Vermaak, W. J. H., Bissbort, S. Rapid high-performance liquid chromatographic assay for total homocysteine levels in human serum. J Chromatogr (1991) 565:441446). The modified mobile phase consisted of 0.37 mol/l acetate and 0.5% methanol, pH 4.15.

The nature of series [3]: Betaine absorption and excretion: blood, serum and urine levels after administration. As for the experimental part: There was, however, no clear correlation between blood and urine betaine levels. After administration of 1, 3 or 6 g betaine an amount of about 3, 5 and 7%, respectively, was recovered as betaine and dimethylglycine (DMG) in 24 h urine. After loading betaine 100 mg/kg, peak serum concentrations were found 1-2 h after loading; the concentrations varying a lot with indiviudual (148-258 μmol/l).

The test system of series [4] is healthy, obese adults with normal blood pressure. Nature of the series: Tolerability of the daily betaine dose in the intervention study. The conditions noted are these: 6 g daily dose, 12 weeks.
Text: as §1, §2
The study was a controlled, randomized double-blinded parallel study. […] Grapefruit juice was added to simulate the bitter taste of betaine. The subjects were on their regular eucaloric diet during this period. For the intervention period with a hypocaloric (−2100 kJ or −500 kcal) diet the subjects were randomly assigned in two groups (20 for the control group, 22 for the betaine group). […]

Where [5] appears, read: 4 wk (beginning of intervention period), betaine group, mean ± SD.

For the compound `C[N+](C)(C)CC(=O)[O-]` [Betaine, trimethylglycine], the Diastolic blood pressure in series [1] (setting [5]) came to 85.4 ± 7.9 mmHg; in series [1] (16 wk (end of intervention period), betaine 6 g daily in orange juice, mean ± SD, P=0.002 vs 4 wk), 80.5 ± 7.1 mmHg. The Systolic blood pressure turned out to be 122.5 ± 9.5 mmHg in series [1] (setting [5]) and 121.1 ± 9.4 mmHg in series [1] (16 wk (end of intervention period), betaine 6 g daily in orange juice, mean ± SD, P=0.432 vs 4 wk). Besides, the “Change in diastolic blood pressure during the intervention period” value in series [1] (12-week intervention, betaine 6 g daily, mean ± SD, P=0.219 vs control group) is reported as −4.9 ± 6.6 mmHg. In series [1] (12-week intervention, betaine 6 g daily, mean ± SD, P=0.740 vs control group), the “Change in systolic blood pressure during the intervention period” value is on record as −1.4 ± 8.0 mmHg. In addition, in series [1] (betaine group, normotensive subjects, 4 wk vs 16 wk), the “Diastolic blood pressure (result in words)” value is on record as “decreased significantly”. For the same compound, the Serum homocysteine concentration in series [2] (4 wk (beginning of intervention), betaine group, mean ± SD) turned out to be 8.76 ± 1.63 µmol/L; in series [2] (16 wk (end of intervention), betaine 6 g daily, P=0.025 vs 4 wk), 7.93 ± 1.52 µmol/L. The “Change in serum homocysteine concentration during the intervention period” value in series [2] (betaine 6 g daily, P=0.030 vs control group) was -0.83 ± 0.34 µmol/L. Also, the “Time of peak serum concentrations after loading” value in series [3] (loading betaine 100 mg/kg) fell in the range of 1 to 2 h. Moreover, the Peak serum concentrations in series [3] (loading betaine 100 mg/kg, varying with individual) fell in the range of 148 to 258 µmol/L. The “Betaine in blood and urine of persons given betaine (result in words)” value in series [3] (persons given betaine in the study) is reported as “Significantly increased amounts”. The Side effects result in series [4] was “no side effects were observed”. The Tolerability result in series [4] is on record as “well tolerated”.
